Marks after values point to notes of the source that are not given here.
Experiments:
[1] = set-up: species or system human; settings: in vivo
Source text: (§1) This study was designed to provide information on the kinetics of HCV following treatment with VX-950 and peginterferon alfa-2a administered over 14 days.
(§2) This study randomized twenty treatment-naïve patients with chronic genotype 1 hepatitis C infection to three dosing arms (Table 6). At the completion of the 14-day study, 19 of 20 patients chose to begin peginterferon alfa-2a/ribavirin, starting within 5 days of completing the 14-day dosing period; as the other one declined to take the combination of Peg-IRN-2a and ribavirin. Clinic visits were conducted at the discretion of the investigators, after completion of the 1-week and 12-week study-mandated follow-up visits. Nineteen patients have been followed through 24 weeks after the completion of the study dosing. After discussion with the treating physicians, ten (4 in VX-950 and 6 in VX-950/peginterferon alfa-2a) patients stopped peginterferon alfa-2a/ribavirin treatment at 24 weeks.

[2] = human, in vivo
WT HCVpro = assay: IFN dependent gene expression / IFNβ promoter activity in Sendai virus infected Huh7 cells; assay type: cell-based
Source text: IFNβ promoter activity decreases in response to Sendai virus stimulation in the presence of WT HCVpro.

HCV genotype 1 = assay: C208 Phase 2 study of telaprevir q8h or q12h with peginterferon alfa-2a or alfa-2b and ribavirin: HCV RNA; assay type: in vivo, human; settings: for RVR (subjects with undetectable HCV RNA, <10 IU/mL, at week 4): listed as TVR
Method: Background: Study 0208 is an ongoing open-label, randomized Phase 2 study of telaprevir (TVR) administered q8h or q12h in combination with peginterferon-alfa-2a (peginterferon-alfa-2a) or peginterferon-alfa-2b and ribavirin (T/PR) in treatment-naïve subjects with HCV genotype 1 infection. We report the results of an interim analysis conducted at week 12 of treatment.
Subjects in all arms received T/PR treatment for 12 weeks, and will subsequently receive either 12 or 36 additional weeks of PR based on rapid virologic response (RVR) criterion. Subjects who met the definition of viral breakthrough (≧1-log increase in HCV RNA above nadir) discontinued TVR dosing and will complete 48 weeks of PR. An intent-to-treat analysis was performed when all treated subjects had completed week 4 of treatment or had discontinued earlier than week 4. The analysis also assessed all treatment or TVR dosing discontinuations including subjects who discontinued beyond week 4, up to the time of data cutoff. The proportion of subjects with HCV RNA below the limit of detection (TaqMan assay LOD 10 IU/mL) at week 4 (RVR) is reported.
C208 is an ongoing, open-label, randomized, multicenter, Phase 2 exploratory study. Adult, treatment-naïve subjects with chronic HCV genotype 1 infection were enrolled, including subjects with bridging fibrosis. Inclusion criteria were consistent with those used in prior HCV studies. Subjects received 12 weeks of T/PR, followed by either 12 or 36 additional weeks of PR based on extended rapid virologic response (RVR) criterion (FIG. 1). Subjects with HCV RNA>1000 IU/mL at Week 4, 6 or 8 were required to discontinue TVR dosing and complete 48 weeks of PR.
An interim intent-to-treat (ITT) analysis was performed and is presented in this report, which includes data obtained for all subjects randomized had completed week 12 of treatment or had discontinued earlier. The primary efficacy endpoint was the proportion of subjects with HCV RNA below the limit of detection (LOD, 10 IU/mL) at different timepoints throughout the first 12 weeks of dosing. HCV RNA levels were measured using the TAQMAN™ HCV RNA assay v2.0 (Roche Molecular Systems Inc., Branchburg, N.J., U.S.A.).
Assessment of virologic breakthrough (defined as a >1-log 10 increase in HCV RNA from nadir, or HCV RNA>100 IU/mL in subjects whose HCV RNA had previously become undetectable [<10 IU/mL] at all assessment timepoints) was performed. Pharmacokinetics and viral dynamics were assessed by pre-defined serial measurements of plasma concentrations of TVR and HCV RNA, respectively, from baseline to Week 12. Pharmacokinetic analysis of TVR was performed using non-compartmental methods for data from full pharmacokinetic profiles. A viral dynamics model, which included fixed effects for treatment and random effects for clearance, drug effect, drop and death rate in infected cells with unstructured variance covariance matrix, was also constructed. Safety and tolerability were assessed by monitoring adverse events (AEs), laboratory abnormalities and cardiovascular parameters.

genotype 1 hepatitis C = assay: Phase 1b 14-day study of VX-950 alone or with peginterferon alfa-2a, followed by peginterferon alfa-2a/ribavirin: HCV RNA; assay type: in vivo, human
Source text: as §1, §2

[3] = male, human, in vivo
Method: VX-950 was examined in a randomized, double-blind, placebo-controlled single-dose escalation study. 25 healthy male volunteers were enrolled and each received multiple single doses of VX-950 (at least 7 days apart, 3 doses of VX-950 at increasing dose levels) and 1 dose of placebo.
A dose escalation scheme was used that combined dose doubling and modified Fibonacci to be aggressive in the lower dose range and conservative in the higher dose range.
A pharmacokinetics analysis was performed using the statistical moment approach.

[4] = Oral bioavailability and plasma trough levels of VX-950; assay type: in vivo
Source text: The trough level is the concentration that a drug drops down to in plasma just before next dose (i.e., the minimum concentration between doses). It is important, particularly in viral diseases, to maintain drug levels above a certain concentration to maintain appropriate inhibition of viral replication.
Accordingly, preferred pharmaceutical compositions of this invention are formulated for oral administration.

[5] = Week 4, range across the four treatment groups
[6] = 1-week F/U, on-study, Peg-IFN-2a/RBV, N = 7 / 8 / 4 per group

In the case of `CCC[C@H](NC(=O)[C@@H]1[C@H]2CCC[C@H]2CN1C(=O)[C@@H](NC(=O)[C@@H](NC(=O)c1cnccn1)C1CCCCC1)C(C)(C)C)C(=O)C(=O)NC1CC1` [VX-950], the Tolerability [1] is reported as “well tolerated”, the “overall proportion of TVR discontinuations for any reason” value ([2]; 4 weeks) is reported as 12% and the “Treatment discontinuations (all drugs), Any reason” value ([2]; 12 weeks) is reported as 24 (15) n (%). For the same molecule, the “Treatment discontinuations (all drugs), Due to AEs” value ([2]; 12 weeks) was 13 (8) n (%), the “IFN dependent gene expression” value (WT HCVpro; Sendai virus infected Huh7 cells) was “restores IFN dependent gene expression” and the IFNβ promoter activation (WT HCVpro; Sendai virus stimulation in the presence of WT HCVpro) was “overcomes the WT HCVpro mediated suppression of IFNβ promoter activation”. For the same molecule, the “subjects who achieved <10 IU/mL HCV RNA” value (HCV genotype 1; [5]) was 67-83%, the “subjects who achieved <25 IU/mL HCV RNA” value (HCV genotype 1; [5]) was 87-96% and the “subjects who achieved <10 IU/mL HCV RNA” value (HCV genotype 1; Week 12, range across the four treatment groups) was 83-93%. For the same molecule, the “RVR (subjects with undetectable HCV RNA, <10 IU/mL, at week 4)” value (“RVR” for short) (HCV genotype 1; arm A: TVR 750 mg q8h + Peg-IFN alfa-2a 180 μg/wk + ribavirin 1000-1200 mg/d (N 40)) was 82%, the “number of subjects with viral breakthrough up to week 4” value (from here on “number of subjects”) (HCV genotype 1; arm A: TVR 750 mg q8h + Peg-IFN alfa-2a + RBV) was 0 and the “RVR” value (HCV genotype 1; arm B: TVR 750 mg q8h + Peg-IFN alfa-2b 1.5 μg/kg/wk + ribavirin 800-1200 mg/d (N 42)) was 71%. The “number of subjects” value (HCV genotype 1; arm B: TVR 750 mg q8h + Peg-IFN alfa-2b + RBV) was 2, the “RVR” value (HCV genotype 1; arm C: TVR 1125 mg q12h + Peg-IFN alfa-2a 180 μg/wk + ribavirin 1000-1200 mg/d (N 40)) was 85% and the “number of subjects” value (HCV genotype 1; arm C: TVR 1125 mg q12h + Peg-IFN alfa-2a + RBV) was 2. For the same molecule, the “RVR” value (HCV genotype 1; arm D: TVR 1125 mg q12h + Peg-IFN alfa-2b 1.5 μg/kg/wk + ribavirin 800-1200 mg/d (N 39)) was 68%, the “number of subjects” value (HCV genotype 1; arm D: TVR 1125 mg q12h + Peg-IFN alfa-2b + RBV) was 1 and the “additional breakthroughs after discontinuation of TVR” value (HCV genotype 1; both in patients infected with genotype 1a) was 2. The “Patients with viral breakthrough while on TVR” value (shortened to “Patients … on TVR”) (HCV genotype 1; q8hr alfa-2a arm) was 1, the “Patients … on TVR” value (HCV genotype 1; q8hr alfa-2b arm) was 3 and the “Patients … on TVR” value (HCV genotype 1; q12 hr alfa-2a arm) was 2. The “Patients … on TVR” value (HCV genotype 1; q12 hr alfa-2b arm) was 3, the “HCV RNA below limit of detection (10 IU/mL) n” value (genotype 1 hepatitis C; [6]) was 1 n and the “HCV RNA below limit of quantitation (30 IU/mL) n” value (genotype 1 hepatitis C; [6]) was 3 n. For the same molecule, the “HCV RNA below limit of quantitation (30 IU/mL) n” value (genotype 1 hepatitis C; 12-week F/U, on-study, Peg-IFN-2a/RBV, N = 7 / 8 / 4 per group) was 6 n, the “Patients who achieved SVR” value (genotype 1 hepatitis C; 14 days of VX-950 optionally with Peg-INF, followed by Peg-INF/ribavirin for additional 22 or 46 weeks) was 10 of 15 and the “Undetectable HCV RNA at 24-week off study peg-IFN-2a/RBV treatment N” value (genotype 1 hepatitis C; N = 7 / 8 / 4 per group) was 7* N. The “Patients with undetectable HCV RNA at week 24” value (genotype 1 hepatitis C; all patients who received VX-950 (alone or with peginterferon)) was 15 patients, the Antiviral activity (genotype 1 hepatitis C; as a single agent or in combination with peginterferon alfa-2a, 14 days) was “rapid and profound antiviral activity” and the “Patients who achieved SVR” value (genotype 1 hepatitis C; at least 14 days of VX-950 (alone or with peginterferon), treated for 24 weeks in total) was 7 of 10. The “Patients who achieved SVR” value (genotype 1 hepatitis C; at least 14 days of VX-950 (alone or with peginterferon), treated for 48 weeks in total) was 3 of 5, the “SVR in a patient receiving a 2 week treatment of VX-950” value (genotype 1 hepatitis C; in vivo) was “SVR was achieved” and the “Undetectable HCV RNA at 12 weeks follow-up after stopping peg-IFN-2a/RBV” value (genotype 1 hepatitis C; patients who stopped peg-IFN-2a/RBV at week 24) was 2 of 4. The “VX-950 eliminated unchanged in the urine” value [3] was “Less than 2%”, the Plasma trough levels ([4]; 750 mg every 8 hours) was “higher trough levels” and the Oral bioavailability ([4]; in vivo, po) was “orally bioavailable”.
